Measured values taken from patent US7338959B2, “Diamino-pyrimidines and their use as angiogenesis inhibitors” (SmithKline Beecham Corporation, priority 2002, dated 2008).
pIC50: −log10 of the molar value. Counter-ions that a name gives are not always drawn.

What was measured:
GST-VEGFR2 = molecular target: T1, GST-VEGFR2 (Homo sapiens, UniProt P35968); test: VEGF-R2 enzyme assay (VEGF-E), LANCE method; assay type: biochemical; settings: GST-VEGFR2, 75 uM ATP, biotinylated peptide
T1 construct: baculovirus expressed recombinant constructs of the intracellular domains of human TIE2 tagged by GST; made in house
T1 sequence (P35968 786-1356 limits assumed): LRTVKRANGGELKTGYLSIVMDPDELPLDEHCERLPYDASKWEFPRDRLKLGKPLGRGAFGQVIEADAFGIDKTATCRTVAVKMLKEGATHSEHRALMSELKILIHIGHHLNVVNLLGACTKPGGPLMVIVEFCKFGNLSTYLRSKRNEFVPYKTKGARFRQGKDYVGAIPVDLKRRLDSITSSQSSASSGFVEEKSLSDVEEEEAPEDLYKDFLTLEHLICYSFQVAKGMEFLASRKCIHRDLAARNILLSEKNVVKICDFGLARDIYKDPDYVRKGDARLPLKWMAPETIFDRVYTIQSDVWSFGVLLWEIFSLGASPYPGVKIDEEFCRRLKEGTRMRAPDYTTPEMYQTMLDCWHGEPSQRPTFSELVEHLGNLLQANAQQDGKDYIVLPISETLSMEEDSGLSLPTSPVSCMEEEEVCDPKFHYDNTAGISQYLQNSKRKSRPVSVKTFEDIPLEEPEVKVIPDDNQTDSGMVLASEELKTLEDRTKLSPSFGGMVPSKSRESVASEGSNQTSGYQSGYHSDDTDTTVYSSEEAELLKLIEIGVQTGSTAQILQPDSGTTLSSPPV
Source text: VEGF-R2 Enzyme Assay (VEGF-E)
The VEGF enzyme assay used the LANCE method (Wallac) and GST-VEGFR2, baculovirus expressed recombinant constructs of the intracellular domains of human TIE2 tagged by GST. The method measured the ability of the purified enzymes to catalyse the transfer of the γ-phosphate from ATP onto tyrosine residues in a biotinylated synthetic peptide, (biotin-aminohexyl-EEEEYFELVAKKKK-NH2). This peptide phosphorylation was detected using the following procedure: GST-VEGFR2 was incubated for 40-60 mins at room temperature with 75 uM ATP, 5 mM MgCl2, 0.1 mM DTT, 0.1 mg/mL BSA and the test compound (diluted from a 10 mM stock in DMSO for desired concentration) in 100 mM HEPES buffer. The reaction was stopped by the addition of EDTA (final concentration 50 mM). Streptavidin linked-APC (allophycocyanin, Molecular Probe) and Europium-labeled anti-phosphorylated tyrosine antibody (Wallac) were then added at the final concentration of 15 nM and 1 nM, respectively. The APC signal was measured using an ARVO multilabel counter (Wallac Berthold, Japan). The percent inhibition of activity was calculated relative to blank control wells. The concentration of test compound that inhibits 50% of activity (IC50) was interpolated using nonlinear regression (Levernberg-Marquardt) and the equation, y=Vmax (1−x/(K+x))+Y2, where “K” was equal to the IC50. The IC50 values were converted to pIC50 values, i.e., −log IC50 in Molar concentration.

[1] = tested on: Human umbilical cord endothelial cells (HUVEC); test: VEGF-driven cellular proliferation assay: BrdU incorporation assay (VEGF-C); assay type: cell-based; settings: 20 ng/ml VEGF
Experimental: VEGF-Driven Cellular Proliferation Assay: BrdU Incorporation Assay (VEGF-C)
Human umbilical cord endothelial cells (HUVEC, Clonetics, CC2519) were passaged in Type I collagen-coated 100-mm petridishes in EGM-MV medium (Clonetics, CC3125) at 37 C in a humidified 5% CO2, 95% air incubator. (HUVEC passaged more than 6 times in vitro were discarded and not subjected to assaying.) The cells were harvested using trypsin/EDTA, counted using a haemocytometer and plated at 5000 cells/well in a Type I-collagen coated 96-well plate (Becton Dickinson, 354407) in M199 medium (Gibco BRL, 12340-030) containing 5% FBS (Hyclone, A 1115-L) and gentamicin (at 50 ug/ml, Gibco BRL). After incubation overnight at 37° C., the media were replaced with 100 ul of M199 serum-free medium containing compounds at various concentrations with 0.6% DMSO and gentamicin. The compounds were diluted in serum-free M199 medium from 10 mM stock solutions prepared in 100% DMSO. After a 30 min incubation at 37° C., the cells were fed with 100 ul of serum-free M199 medium containing gentamicin, 0.2% culture-grade bovine serum albumin (BSA, Sigma A1993) and 20 ng/ml of VEGF (REtD systems, 293-VE) or 0.6 ng/ml of basic FGF (REtD systems, 233-FB), and cultured at 37° C. for another 24 h. The cells were pulsed with bromodeoxyuridine (BrdU at 10 uM in serum-free M199) at 37° C. for an additional 24 h. The incorporation of BrdU into the proliferating HUVEC were analyzed using BrdU Cell Proliferation ELISA (Roche Molecular Biochemicals, 1647229) according to the manufacturer's protocols. The optical density at 450 nm was measured with a multilabel counter (ARVO SX, Wallac). The percent inhibition of cell growth was calculated relative to blank control wells. The concentration of test compound that inhibits 50% of cell growth (IC50) was interpolated using nonlinear regression (Levernberg-Marquardt) and the equation, y=Vmax (1−x/(K+x))+Y2, where “K” was equal to the IC50. The IC50 values were converted to pIC50 values, i.e., −log IC50 in Molar concentration.

Recombinant GST-Tie2 = Recombinant GST-Tie2 (Homo sapiens, UniProt Q02763); test: Tie2 fluorescence polarization kinase activity assay (TIE2-FP); assay type: biochemical; settings: activated Tie2, 200 μM ATP, peptide substrate
Sequence of Recombinant GST-Tie2 (Q02763 23-1124): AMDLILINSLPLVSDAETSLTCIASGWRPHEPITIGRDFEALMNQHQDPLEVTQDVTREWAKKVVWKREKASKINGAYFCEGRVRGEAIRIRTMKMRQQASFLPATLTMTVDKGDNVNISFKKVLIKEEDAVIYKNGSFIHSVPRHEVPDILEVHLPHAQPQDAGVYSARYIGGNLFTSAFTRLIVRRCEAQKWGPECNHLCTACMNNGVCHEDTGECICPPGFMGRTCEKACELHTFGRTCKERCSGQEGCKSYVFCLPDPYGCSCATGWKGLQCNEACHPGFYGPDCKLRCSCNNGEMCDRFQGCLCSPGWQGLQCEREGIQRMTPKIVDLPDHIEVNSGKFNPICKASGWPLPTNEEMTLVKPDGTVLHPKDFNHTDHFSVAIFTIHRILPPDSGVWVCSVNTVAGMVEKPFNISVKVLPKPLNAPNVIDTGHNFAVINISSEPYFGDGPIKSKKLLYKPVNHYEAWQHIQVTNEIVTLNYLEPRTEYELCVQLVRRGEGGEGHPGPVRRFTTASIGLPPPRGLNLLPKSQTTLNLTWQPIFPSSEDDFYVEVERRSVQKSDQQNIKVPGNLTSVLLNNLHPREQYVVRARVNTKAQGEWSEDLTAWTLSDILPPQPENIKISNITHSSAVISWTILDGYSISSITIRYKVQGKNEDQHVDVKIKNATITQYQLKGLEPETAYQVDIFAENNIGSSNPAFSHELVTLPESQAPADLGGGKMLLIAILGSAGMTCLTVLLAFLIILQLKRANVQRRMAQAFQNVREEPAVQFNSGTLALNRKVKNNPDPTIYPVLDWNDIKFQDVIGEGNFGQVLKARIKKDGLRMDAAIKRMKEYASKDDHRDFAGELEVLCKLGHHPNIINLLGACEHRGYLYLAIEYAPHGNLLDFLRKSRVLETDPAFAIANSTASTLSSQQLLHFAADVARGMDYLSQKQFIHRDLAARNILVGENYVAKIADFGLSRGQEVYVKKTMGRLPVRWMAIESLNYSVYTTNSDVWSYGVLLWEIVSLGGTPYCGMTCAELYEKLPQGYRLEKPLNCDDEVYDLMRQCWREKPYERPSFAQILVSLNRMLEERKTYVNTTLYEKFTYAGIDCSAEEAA
Experimental: Tie2 Fluorescence Polarization Kinase Activity Assay: (TIE2-FP)
Activation of Recombinant Tie2 Activation:
Recombinant GST-Tie2 was activated by incubating the enzyme in 20 mM Tris-HCl, pH 7.5, 12 mM MgCl2, 100 mM NaCl, 20 μM sodium vanidate, 1 mM DTT and 300 μM ATP at room temperature for 2 hours. The activation mixture was then passed through a NAP-25 desalting column (Pharmacia Biotech cat. no. 17-0852-02) to remove the free ATP. The activated enzyme was stored as aliquots at −80° C. in 20 mM Tris-HCl, pH 7.5 and 100 mM NaCl.
The final assay conditions were 50 mM HEPES, pH 7.5, 5% DMSO (when screening compounds), 200 μM ATP, 5 mM MgCl2, 1 mM DTT, 50 μM sodium vanidate, 1 nM activated enzyme, and 200 μM peptide. IC50's of compounds were measured under subsaturating ATP (200 μM) and varing concentrations of activated Tie2 and peptide substrate (RFWKYEFWR-OH; MW 1873 Da, TFA salt). Panvera Anti-phosphotyrosine antibody (Cat#P2840) and PTK Green Tracer (Cat#P2842) were used to detect the phosphorylated peptide. Polarization was measured on a TECAN Polarion in 138-second cycles for 30 minutes at room temperature. IC50's were then determined from the % polarization using normal calculation methods.

Molecule | pIC50 (GST-VEGFR2) | pIC50 (Recombinant GST-Tie2) | TIE2-FP (Recombinant GST-Tie2) | VEGF-E (GST-VEGFR2) | pIC50 [1]
CN(c1ccc2c(c1)nc(Nc1ccc(C(F)(F)F)cc1)n2C)c1ccnc(Nc2ccc(CS(C)(=O)=O)cc2)n1 [Example 110, N^1-Methyl-N^5-[2-(4-Methanesulfonymethyl-phenylamino)-pyrimidin-4-yl]-N^5-methyl-N^2-(4-trifluoromethyl-phenyl)-1H-benzoimidazole-2,5-diamine] | > 7.00 | > 7.00 |  |  | 
CN(c1ccc2c(c1)nc(NC(=O)C1(c3ccccc3)CC1)n2C)c1ccnc(Nc2ccc(CS(C)(=O)=O)cc2)n1 [Example 203, Phenylcyclopropanecarboxylic acid ({[2-(4-methanesulfonylmethyl-phenylamino)-pyrimidin-4-yl]-methyl-amino}-methyl-1H-benzoimidazol-2-yl)-amide] | > 7.00 | > 7.00 |  |  | 
CN(c1ccc2c(c1)nc(NC(=O)Cc1ccccc1Cl)n2C)c1ccnc(Nc2ccc(CS(C)(=O)=O)cc2)n1 [Example 230, 2-(2-Chlorophenyl)-N-({[2-(4-methanesulfonylmethyl-phenylamino)-pyrimidin-4-yl]-methyl-amino}-methyl-1H-benzoimidazol-2-yl)-acetamide] | > 7.00 | 5.00 to 6.00 |  |  | 
CN(c1ccc2c(c1)nc(NC(=O)C1(c3ccc(Cl)c(Cl)c3)CC1)n2C)c1ccnc(Nc2cccc(CS(C)(=O)=O)c2)n1 [Example 229, 1-(3,4-Dichloro-phenyl)-cyclopropanecarboxylic acid ({[2-(3-methanesulfonylmethyl-phenylamino)-pyrimidin-4-yl]-methyl-amino}-methyl-1H-benzoimidazol-2-yl)-amide] | 6.00 to 7.00 | 5.00 to 6.00 |  |  | 
CN(c1ccc2c(c1)nc(NC(=O)Cc1cccs1)n2C)c1ccnc(Nc2ccc(CS(C)(=O)=O)cc2)n1 [Example 153] | > 7.00 | 5.00 to 6.00 |  |  | 
(3,5-Bis-trifluoromethyl-phenyl)-N-({[2-(3-methanesulfonylmethyl-phenylamino]-pyrimidin-4-yl]-methyl-amino}-methyl-1H-benzoimidazol-2-yl)-acetamide [Example 161] |  |  | + (+ = pIC50 of 5.0-6.0) | ++ (++ = pIC50 of 6.0-7.0) | 
CN(c1ccc2c(c1)nc(NCc1ccccc1)n2C)c1ccnc(Nc2ccc(CS(C)(=O)=O)cc2)n1 [Example 4, N^2-benzyl-N^5,1-dimethyl-N^5-[2-({4-[(methylsulfonyl)methyl]phenyl}amino)pyrimidin-4-yl]-1H-benzimidazole-2,5-diamine hydrochloride] | > 7.00 |  |  |  | > 7.00

Now from value to molecule, other results behind:

pIC50 (GST-VEGFR2) | pIC50 (Recombinant GST-Tie2) | TIE2-FP (Recombinant GST-Tie2) | VEGF-E (GST-VEGFR2) | Molecule | pIC50 [1]
> 7.00 |  |  |  | CC(C)Nc1nc2cc(N(C)c3ccnc(Nc4ccc(CS(C)(=O)=O)cc4)n3)ccc2n1C [Example 1, N^2-isopropyl-N^5,1-dimethyl-N^5-[2-({4-[(methylsulfonyl)methyl]phenyl}amino)pyrimidin-4-yl]-1H-benzimidazole-2,5-diamine hydrochloride] | > 7.00
> 7.00 |  |  |  | CC(C)Nc1nc2cc(N(C)c3ccnc(Nc4ccc(CS(N)(=O)=O)cc4)n3)ccc2n1C [Example 2, hydrochloride] | > 7.00
> 7.00 |  |  |  | CNc1nc2cc(N(C)c3ccnc(Nc4ccc(CS(C)(=O)=O)cc4)n3)ccc2n1C [Example 3, hydrochloride] | > 7.00
> 7.00 |  |  |  | CN(c1ccc2c(c1)nc(Nc1ccccc1)n2C)c1ccnc(Nc2ccc(CS(C)(=O)=O)cc2)n1 [Example 5, N^5,1-Dimethyl-N^5-[2-({4-[(methylsulfonyl)methyl]phenyl}amino)pyrimidin-4-yl]-N^2-phenyl-1H-benzimidazole-2,5-diamine trifluoroacetic acid] | > 7.00
> 7.00 |  |  |  | CONS(=O)(=O)c1cc(Nc2nccc(N(C)c3ccc4c(c3)nc(NCc3ccccc3)n4C)n2)ccc1C [Example 6, 5-({4-[[2-(Benzylamino)-1-methyl-1H-benzimidazol-5-yl](methyl)amino]pyrimidin-2-yl}amino)-N-methoxy-2-methylbenzenesulfonamide] | > 7.00
